Laboratory results taken from patent US20210186973A1, “COMBINATION OF RIBOCICLIB AND DABRAFENIB FOR TREATING OR PREVENTING CANCER” (NOVARTIS AG, priority 2015, published 2021).
Entries after “also recorded” stand apart in the source; their conditions may differ.

Tests used:
Type in all cases: cell-based
[1] = tested on: 6 B-Raf mutant colorectal cancer cell lines; assay: Cell proliferation over the panel of 6 cell lines; conditions: single agent
Description: (§1) The compounds were dissolved in 100% DMSO (Sigma, Catalog number D2650) at concentrations of 20 mM and stored at −20° C. until use. Compounds were arrayed in drug master plates (Greiner, Catalog number 788876) and serially diluted 3-fold (7 steps) at 2000× concentration.
(§2) Colorectal cancer cell lines used for this study were obtained, cultured and processed from commercial vendors ATCC, CellBank Australia, and HSRRB (Table 1). All cell line media were supplemented with 10% FBS (HyClone, Catalog number SH30071.03). […]
(§3) Cell lines were cultured in 37° C. and 5% CO2 incubator and expanded in T-75 flasks. In all cases cells were thawed from frozen stocks, expanded through ≥1 passage using 1:3 dilutions, counted and assessed for viability using a ViCell counter (Beckman-Coulter) prior to plating. […] All cell lines were determined to be free of mycoplasma contamination as determined by a PCR detection methodology performed at Idexx Radil (Columbia, Mo., USA) and correctly identified by detection of a panel of SNPs.
(§4) Images were analyzed after adapting previously described methods (Horn, Sandmann et al. 2011) and using the Bioconductor package EBImage in R (Pau, Fuchs et al. 2010). Objects in both channels, DAPI (for Hoechst/DNA) and FITC (for Caspase 3/7), were segmented separately by adaptive thresholding and counted. […]

[2] = tested on: RKO; assay: Cell proliferation (cell count by microscopy) in RKO; conditions: Homo sapiens; single agent; RKO (BRAF, PIK3CA); 72 h; 50% of cell counts relative to DMSO
Description: as §1, §2, §3, §4

[3] = tested on: LS411N; assay: Cell proliferation (cell count by microscopy) in LS411N; conditions: Homo sapiens, LS-411N; single agent; LS411N (BRAF); 72 h; 50% of cell counts relative to DMSO
Description: as §1, §2, §3, §4

[4] = tested on: HT-29; assay: Cell proliferation (cell count by microscopy) in HT-29; conditions: Homo sapiens; single agent; HT-29 (BRAF, PIK3CA); 72 h; 50% of cell counts relative to DMSO
Description: as §1, §2, §3, §4

[5] = tested on: LIM2551; assay: Cell proliferation (cell count by microscopy) in LIM2551; conditions: single agent; LIM2551 (BRAF, PIK3CA); 72 h; 50% of cell counts relative to DMSO
Description: as §1, §2, §3, §4

[6] = tested on: COLO-205; assay: Cell proliferation (cell count by microscopy) in COLO-205; conditions: Homo sapiens; single agent; COLO-205 (BRAF); 72 h; 50% of cell counts relative to DMSO
Description: as §1, §2, §3, §4

[7] = tested on: OUMS-23; assay: Cell proliferation (cell count by microscopy) in OUMS-23; conditions: single agent; OUMS-23 (BRAF); 72 h; 50% of cell counts relative to DMSO
Description: as §1, §2, §3, §4

| Compound | IC50s (in words) ([1]; in the PIK3CA mutant cells) | IC50 [2] | IC50 [3] | IC50 [4] | IC50 [5] | IC50 [6] | IC50 [7] | IC50s (in words) ([1]; all but one cell line (ODMS-23)) |
| --- | --- | --- | --- | --- | --- | --- | --- | --- |
| Cc1nc(NC(=O)N2CCC[C@H]2C(N)=O)sc1-c1ccnc(C(C)(C)C(F)(F)F)c1 [BYL719, (S)-Pyrrolidine-1,2-dicarboxylic acid 2-amide 1-({4-methyl-5-[2-(2,2,2-trifluoro-1,1-dimethyl-ethyl)-pyridin-4-yl]-thiazol-2-yl}-amide)] | micromolar |  |  |  |  |  |  |  |
| CC(C)(C)c1nc(-c2cccc(NS(=O)(=O)c3c(F)cccc3F)c2F)c(-c2ccnc(N)n2)s1 [Dabrafenib, N-{3-[5-(2-Amino-4-pyrimidinyl)-2-(1,1-dimethylethyl)-1,3-thiazol-4-yl]-2-fluorophenyl}-2,6-difluorobenzenesulfonamide] |  | 240 nM | 36 nM | 16 nM | 18 nM | 7 nM | > 1000 nM | nanomolar to low micromolar; also recorded: nanomolar to sub-micromolar |
